{"source": "patent US20210095293A1", "about": "“METHODS OF TREATING CANCERS WITH GPR132 INHIBITORS” (The Board of Regents of the University of Texas System, priority 2016, published 2021)", "molecules": {"B1": {"name": "IL-4: standard T helper 2 cytokine used to trigger macrophage M2 activation (protein, UniProt P05112 25-153, looked up)", "Interleukin-4": "HKCDITLQEIIKTLNSLTEQKTLCTELTVTDIFAASKNTTEKETFCRAATVLRQFYSHHEKDTRCLGATAQQFHRHKQLIRFLKRLDRNLWGLAGLNSCPVKEANQSTLENFLERLKTIMREKYSKCSS"}}, "type_in_all_cases": "cell-based, mouse", "key": {"[1]": {"tested_on": "bone marrow derived macrophages (BMDMs)", "assay": "macrophage M2-like morphology (elongation)", "conditions": "cancer cells treated with oxamic acid 90 mM for 3 days before CM harvest", "description": "FIGS. 9A-9D. Tumor-derived factors activate M2-like macrophages via Gpr132. (FIG. 9A) The pH values of conditioned media (CM) from cancer cells or macrophages (n=5-8); *p<0.05, ****p<0.001 compared with RAW 264.7 macrophage CM. (FIG. 9B) Western blot for CD206 and Gpr132 in RAW 264.7 macrophages after treatment with indicated cancer cell CM for 24 hrs. Actin was used as a loading control. The CD206/actin or Gpr132/actin ratio was quantified and shown as fold changes compared to control (n=3); *p<0.05, ***p<0.005 compared with control. (FIG. 9C) Flow cytometry analysis of Gpr132 and CD206 in BMDMs with or without EO771 CM treatment. The experiments were repeated twice and the representative results are shown. (FIG. 9D) Immunofluorescence staining for CD11b in WT and Gpr132-KO BMDMs after differentiation in the absence or presence of 30% EO771 CM or 4T1.2 CM for 7 days. Elongated macrophage morphology indicates a M2-like phenotype. Nuclei were stained with DAPI. Scale bar, 25 μm. WT, wild-type; Gpr132-KO, Gpr132 knockout.\nFIGS. 10A-10F. […] LC-MS was used to quantify lactate in the eluent of Gpr132 co-IP. (Left) Representative LC-MS chromatograms; (Right) Quantification of relative lactate binding (n=3). ****p<0.001 compared with WT. […] CD206/actin ratio was quantified and shown as fold changes compared to control (n=3-4); *p<0.05 compared with WT control. […]"}, "[2]": {"tested_on": "breast cancer cells (4T1.2, EO771)", "assay": "Boyden chamber assay, cancer cell migration", "conditions": "oxamic acid 90 mM pre-treatment; WT macrophages", "experimental": "(§1) FIGS. 11A-11C. Lactate-activated macrophage promotes cancer cell adhesion, migration and invasion via Gpr132. (FIG. 11A) Adherence assays. 4T1.2 cells were suspended in fibronectin ([…]) pre-coated plates with CM from spleen-derived macrophages (mf) that were treated with 4T1.2 CM or lactate (5 mM) with or without Gpr132 antibody (6 mg/ml) or normal IgG (6 mg/ml) for 10 min. The adhered cells were stained with crystal violet, dissolved in 1% Triton X-100 and measured by OD590. (FIGS. 11B-11C) Boyden chamber assay of cancer cell migration and invasion. 4T1.2 cells (B) or EO771 cells (FIG. 11C) were plated on the upper chamber inserts, with untreated (Control), 4T1.2 CM-activated or lactate-activated spleen-derived WT or Gpr132-KO macrophages plated in the lower chambers. For invasion assay, the inserts were pre-coated with 60 μl matrigel. After migration for 6 hrs (FIG. 11B) or invasion for 24 hrs (FIG. 11C), the migrated or invaded cells were stained with crystal violet and counted as cells per field of view under microscope (n=3-4); For (FIG. 11C), the first bar of each data set of the bar graphs represents the control mf, and the second bar represents Gpr132KO; *p<0.05; **p<0.01; ***p<0.005; ****p<0.001. Scale bar, 500 μm.\n(§2) FIGS. 23A-23B. Cancer cell-derived lactate activates macrophages to promote cancer cell migration and invasion via Gpr132. (FIGS. 23A-23B) Boyden chamber assay. EO771 or 4T1.2 cells were cultured in the presence or absence of oxamic acid (90 mM) for 3 days. CM was harvested after the cells were cultured for another 24 hrs without oxamic acid. As a rescue, CM of oxamic acid-treated EO771 or 4T1.2 cells was supplemented with exogenous lactate. […] After migration for 6 hrs (FIG. 23A) or invasion for 24 hrs (FIG. 23B), the migrated or invaded cells were stained with crystal violet and counted as cells per field of view under microscope (n=3-4); for (FIG. 23A), the bars in each data set of the bar graph represent, from left to right, control, EO771, Oxamic acid, and Oxamic acid+Lactate; for (FIG. 23B), the bars in each data set of the bar graph represent, from left to right, control, 4T1.2CM, Oxamic acid, and Oxamic acid+Lactate; *p<0.05; ****p<0.001. […]\nMigration or invasion of breast cancer cells was examined using 24-well Boyden chambers (Corning, Corning, N.Y.) with transwell inserts of […] pore size, coated without (for migration) or with matrigel (for invasion) as previously reported. […] The migrated or invaded cells were fixed with methanol and stained with crystal violet (0.05%, sigma), and then counted as cells per field of view under microscope or measured as OD570 after crystal violet was dissolved."}, "[3]": {"tested_on": "breast cancer cells (EO771, 4T1.2)", "assay": "Boyden chamber assay, cancer cell invasion (matrigel)", "conditions": "oxamic acid 90 mM pre-treatment; WT macrophages", "experimental": "as §1\nas §2, with “acid.” for “acid. As a rescue, CM of oxamic acid-treated EO771 or 4T1.2 cells was supplemented with exogenous lactate.”"}, "EO771 and 4T1.2 cells": {"tested_on": "EO771 and 4T1.2 cells", "assay": "lactate and pH in cancer cell conditioned media", "conditions": "oxamic acid 90 mM for 3 days, CM after another 24 hrs", "experimental": "FIGS. 18A-18E. Lactate secreted by EO771 and 4T1.2 cells is responsible for the low pH in their CM. (FIG. 18A) Lactate levels in the conditional media (CM) from various cancer cells (n=3); *p<0.05, ****p<0.001 compared with EO771 CM; #### p<0.001 compared with 4T1.2 CM. (FIG. 18B) Lactate levels in EO771 CM at the indicated time point of culture (n=3). (FIG. 18C) Lactate levels in the whole CM, <3 kDa and >3 kDa fractions of CM from 24 h EO771 cell cultures (n=3). (FIGS. 18D-18E) EO771 and 4T1.2 cells were treated with or without oxamic acid (90 mM) for 3 days. CM was harvested after the cells were cultured for another 24 hrs without oxamic acid before lactate (FIG. 18D) and pH (FIG. 18E) quantification (n=3). **p<0.01, ***p<0.005, ****p<0.001.\nRAW264.7, EO771, 4T1.2, PY8119, PY230, SCP-4, SCP-6, SCP-28, MDA-1883, MDA-2287 and B16F10 cell lines were cultured in culture media containing 10% FBS (Sigma) and 1:100 antibiotic-antimycotic (Gibco). Conditioned media were obtained from serum-free media after culturing cells for 24 hrs or as indicated. Bone marrow-derived macrophages (BMDMs) and spleen-derived macrophages from WT and Gpr132-KO mice were cultured as previously described. Lactate in the conditioned media was quantified using a Vitros 250 chemistry analyzer at the UT Southwestern Metabolic Phenotyping Core."}, "Gpr132": {"tested_on": "Gpr132", "assay": "calcium mobilization assay in BMDMs", "conditions": "WT or Gpr132-KO BMDMs stimulated with 25 mM", "experimental": "FIG. 27. […] WT or Gpr132-KO BMDMs were stimulated with 25 mM lactate (Left) or HCl (Right) (n=3).\nTo determine whether Gpr132 is required for lactate signaling in macrophages, a calcium mobilization assay was performed. […] First, lactate levels in the CM of distinct cancer cell lines were measured using a Vitros 250 chemistry analyzer. […] Second, the effects of blocking lactate production from EO771 and 4T1.2 cells by oxamic acid, an inhibitor of lactate dehydrogenase was tested."}, "macrophages": {"tested_on": "macrophages", "assay": "M2 marker expression in macrophages (Western blot, RT-qPCR, flow cytometry)", "conditions": "IL-4 10 ng/ml for 16 hrs, spleen macrophages", "experimental": "After blocking with 10% BSA for 10 min, cells were incubated with anti-CD206 (Rabbit polyclonal, Abcam) or anti-Gpr132 (Rabbit polyclonal, Sigma) antibodies (1:100) for 30 min at 4° C., washed with cold PBS, and then incubated with FITC-conjugated secondary antibodies (1:100) for 30 min at 4° C. After washing twice using cold PBS, cells were analyzed by flow cytometer (Becton Dickinson). RNA was isolated from cells or mouse tissues using Trizol (Invitrogen) following the manufacturer's instructions. RNA (200-500 ng) was first treated with RNase-free DNase I using the DNA-free kit (Ambion) to remove all genomic DNA, and then reverse-transcribed into cDNA using an ABI High Capacity cDNA RT Kit (Invitrogen). The cDNA was analyzed using real-time quantitative PCR (SYBR Green, Invitrogen) with an Applied Biosystems 7900 Sequence Detection System. Each reaction was performed in triplicate in a 384-well format. The expression of each gene was normalized by that of mouse ribosomal protein L19. Samples of 20 μg protein were applied to SDS polyacrylamide gels. After protein transfer, membranes were incubated with antibodies for […] (rabbit polyclonal, Santa Cruz Biotechnology), CD206, Gpr132, or β-actin (mouse monoclonal, Sigma) (1:1000) overnight at 4° C. Membranes were washed, and then incubated with HRP-conjugated secondary antibodies (1:1000) for 1 hr at room temperature before signal detection by chemiluminescence (Pierce). Densitometric quantification was performed by Image-Pro Plus 6.0 software (Media Cybernetics). PathScan Akt Signaling Antibody Array (Cell Signaling) was incubated with macrophage proteins and analyzed following kit instructions."}}, "note": "Structures can show the parent of a compound that is named as a salt."}
{"molecule": "NC(=O)C(=O)O", "note": "[oxamic acid]", "values": [{"measurement": "ability of EO771 or 4T1.2 CM to induce M2-like morphology in WT BMDMs", "setting": "[1]", "value": "completely abolished"}, {"measurement": "effects of CM-activated WT macrophages on cancer cell migration after pre-treatment of cancer cells", "setting": "[2]", "value": "abolished"}, {"measurement": "effects of CM-activated WT macrophages on cancer cell invasion after pre-treatment of cancer cells", "setting": "[3]", "value": "abolished"}, {"measurement": "lactate in the CM", "setting": "EO771 and 4T1.2 cells", "value": "depleted"}]}
{"molecule": "Cl", "note": "[hydrochloric acid (HCl), hydrochloric acid]", "values": [{"measurement": "effect of Gpr132 deletion on triggered calcium mobilization", "setting": "Gpr132", "value": "not"}]}
{"molecule": "B1", "values": [{"measurement": "induction of M2 markers (Arg-1, CCL17, CCL22, PPAR-γ, YM-1, YM-2), WT vs Gpr132-KO macrophages", "setting": "macrophages", "value": "equally well"}]}
